Results on four molecules are retold here after article PMC3131601, “A Novel Cold-Active Lipase from Candida albicans: Cloning, Expression and Characterization of the Recombinant Enzyme” (International Journal of Molecular Sciences, 2011).

For the assay, the system named is T1, Lip5-DM (recombinant Lip5, CALip5).
T1 construct: putative 14-residue signal peptide removed; secreted from Pichia pastoris X-33 (pGAPZalphaA), about 50 kDa
Kind of assay: p-nitrophenol release at […] nm, Lineweaver-Burk. In kind it is biochemical, Candida albicans. The settings on record: 100 mM Na2HPO4-NaH2PO4 pH 6.0; kinetics run at 5, 15 and 25 °C, temperature of table values not stated.

In the case of `CCCCCCCCCCCCCCCC(=O)Oc1ccc([N+](=O)[O-])cc1` [C16, p-NP-palmitate], the Km amounted to 360 µM.

For the molecule `CCCCCCCC(=O)Oc1ccc([N+](=O)[O-])cc1` [C8, p-NP-caprylate], the Michaelis constant (Km) worked out at 270 µM. The figure for `CCCCCCCCCCCC(=O)Oc1ccc([N+](=O)[O-])cc1` [C12, p-NP-laurate] is 500 µM; for `CCCC(=O)Oc1ccc([N+](=O)[O-])cc1` [C4, p-NP-butyrate] it is 410 µM.
